# Assay results: patent publication US20150031760A1, “PHARMACEUTICAL COMPOSITION FOR PREVENTING OR TREATING NERVOUS SYSTEM DISORDERS COMPRISING SULFURETIN OR PHARMACEUTICALLY ACCEPTABLE SALT THEREOF” (Research and Business Foundation SUNGKYUNKWAN UNIVERSITY, priority 2010, published 2015)
# Tests used:
# PC12 cells = experiment: MTT (cell viability) test, corticosterone-induced cell death in PC12 cells; format: cell-based; settings: Rattus norvegicus
# Description: For the experiment shown in FIG. 3, PC12 cells were cultured in DMEM medium (Hyclone, Thermo, USA) containing 10% FBS, 5% horse serum and antibiotics (Gibco-BRL, USA). […] The concentration of corticosterone was determined to be 400 μM after evaluation of cell viability.
# SH-SY5Y cells [1] = experiment: Inhibition of ROS production (DCFH-DA fluorescence); format: cell-based, human; settings: hydrogen peroxide-induced, 2 hours pretreatment
# Description: (§1) The incubator was maintained at a temperature of 37° C., and a mixed gas of 95% air and 5% CO2 was continuously supplied thereto to provide suitable conditions for cell culture. The cells were cultured in a 6-well plate or a 96-well plate at each of densities of 1×10^6 and 2×10^4 cells/well 24 hours before the experiment. […] Sulfuretin was used in ethanol and used at a final concentration of 0.1% or less.
# In order to measure ROS elimination activity, cells were labeled with DCFH-DA fluorescence, and quantitative analysis was performed using a fluorescence meter.
# Specifically, the 6-well plate in which the cells have been cultured was pretreated with sulfuretin for 2 hours, and then reacted with hydrogen peroxide for 30 minutes to induce ROS. Then, 10 μl of 10 mM DCFH-DA was added to the plate and allowed to react with the cells for 30 minutes. Herein, DCFH-DA in the incubator was covered with a foil such that it would not be exposed to light. The cells that reacted with the DCFH-DA fluorescent substance were detached using cold PBS and centrifuged at 400 g for 3 minutes. The centrifugation process was repeated twice to wash the fluorescent substance. The washed cells were briefly stirred with 1 ml of PBS, and 100 μl was dispensed into each of a fresh 96-well plate. Then, fluorescence was measured at an excitation wavelength of 488 nm and an emission wavelength of 515 nm using a fluorescence meter (Perkinelmer, USA).
# The measured value was substituted into the following equation to calculate ROS production:
# ROS production (%)=[(O.D. of control−O.D. of test group)/O.D. of control]×100
# caspase-3 = experiment: Western blot, caspase-3 expression; format: cell-based, human; settings: SH-SY5Y cells
# Description: as §1
# (§2) In order to identify the effect of sulfuretin on the expression of proteins related to dementia, Alzheimer's disease, Parkinson's disease and strokes, a Western blot test was carried out.
# (§3) After 24 hours, the supernatant of each well was collected and centrifuged at 400 g for 3 minutes, and the cells were washed with cold PBS and lysed with 100 μl of T-PER lysis buffer (Thermo, USA) for 30 minutes. The lysates were centrifuged at 10000 g at 4° C. for 15 minutes, and the supernatants were stored at […] until use as test samples. Proteins were quantitatively analyzed using a BCA assay kit (Thermo, USA) and separated within 8.5-12% SDS gel and then transferred to PVDF membranes. To examine the expression of the proteins, the development of fluorescence was analyzed by enhanced chemiluminescence (ECL). Specifically, the membrane was blocked with 5% skimmed non-fat milk for 1 hour and labeled with the primary antibodies, PARP, caspase-3, phospho-p38, phospho-JNK and β-actin at 4° C. overnight. Then, the membrane was washed three times with Tris-tween buffered saline (TTBS), and then labeled with horseradish peroxidase (HRP)-conjugated anti-rabbit and anti-mouse secondary antibodies at room temperature for 1 hour. Then, the membrane was washed five times with TTBS for 10 minutes. The washed film was developed by ECL using x-ray films, and concentrations were quantitatively analyzed using quantitative analysis program (Fujifilm, Japan).
# phospho-p38 = experiment: Western blot, phospho-p38 expression; format: cell-based, human; settings: SH-SY5Y cells
# Description: as §1, §2, §3
# phospho-JNK = experiment: Western blot, phospho-JNK expression; format: cell-based, human; settings: SH-SY5Y cells
# Description: as §1, §2, §3
# mice = experiment: Scopolamine-induced learning and memory deficits, step-through passive avoidance test; format: in vivo
# Description: Male ICR mice (4-weeks-old, 18-20 g) were purchased from Koatech Co., Ltd. (Pyongtaek, Korea). Mice were housed 10 per cage, allowed access to water and food ad libitum, and maintained in constant temperature (23±1° C.) and humidity (55±5%) conditions under a 12 hour light/dark cycle (lights on 07:00 to 19:00 h). All experiments were conducted in accord with the NIH Guide for the Care and Use of Laboratory Animals and with the approval of the Institutional Animal Care and Use Committee of Sungkyunkwan University.
# Assessment of the training or test trials of the passive avoidance test was carried out in identical illuminated and non-illuminated compartments (12×10×12 cm) containing 2-mm stainless steel rods spaced 0.5 cm apart. A 50 W lamp positioned 1 meter above both chambers illuminated the apparatuses. Briefly, the mice underwent two separate trials, a training trial and a test trial 24 hours later. For the training trial, mice were initially placed in the clear chamber. When they entered the dark chamber, the door closed and a 3-sec electrical foot shock (0.5 mA) was delivered through the stainless steel rods. One hour before each training trial, mice were given sulfretin (0.25, 0.5, or 1 mg/kg, p.o.). After 30 minutes, memory impairment was induced by administering scopolamine (0.5 mg/kg, i.p.). Twenty-four hours after the training trial, mice were placed in the illuminated chamber for the test trial. The time for the mouse to enter the dark compartment after the door opening was defined as latency for both training and test trials. Latencies were recorded for up to 300 s. To avoid a ceiling effect in unimpaired animals, sulfuretin alone was administered 1 hour before the training trial without scopolamine treatment. The intensity of electrical foot shock was set at 0.25 mA for 3 seconds. This lower intensity shock allowed for a behavioral window through which to detect any enhancing effect of sulfuretin.
# SH-SY5Y cells [2] = experiment: LDH assay, amyloid beta25-35-induced cytotoxicity; format: cell-based, human; settings: pretreatment with sulfuretin at 2.5, 5, 10 and 20 μM; 20 μM amyloid beta25-35 for 24 h (p<0.001)
# [3] = hydrogen peroxide + sulfuretin 0.1 μg/ml
# [4] = hydrogen peroxide + sulfuretin 0.5 μg/ml
# [5] = hydrogen peroxide + sulfuretin 1 μg/ml
smiles,measurement,setting,value
O=C1/C(=C/c2ccc(O)c(O)c2)Oc2cc(O)ccc21 [sulfuretin],viability at 0.1 µg/mL,"PC12 cells; PC-12, read-out: cell viability",≥ 52%
same,viability at 0.5 µg/mL,"PC12 cells; PC-12, corticosterone-induced cell death, sulfuretin 0.5 μg/ml",≥ 55%
same,viability at 1 µg/mL,"PC12 cells; PC-12, corticosterone-induced cell death, sulfuretin 1 μg/ml",≥ 72%
same,viability at 5 µg/mL,"PC12 cells; PC-12, corticosterone-induced cell death, sulfuretin 5 μg/ml",≥ 90%
same,ROS production,SH-SY5Y cells [1]; sulfuretin 0.1 μg/ml,≤ 147%
same,ROS production,SH-SY5Y cells [1]; sulfuretin 0.5 μg/ml,≤ 126%
same,ROS production,SH-SY5Y cells [1]; sulfuretin 1 μg/ml,≤ 123%
same,ROS production,SH-SY5Y cells [1]; sulfuretin 5 μg/ml,≤ 103%
same,caspase-3 expression,caspase-3; [3],≥ 24%
same,caspase-3 expression,caspase-3; [4],≥ 51%
same,caspase-3 expression,caspase-3; [5],≥ 127%
same,phospho-p38 expression,phospho-p38; [3],≤ 157%
same,phospho-p38 expression,phospho-p38; [4],≤ 133%
same,phospho-p38 expression,phospho-p38; [5],≤ 53%
same,phospho-JNK expression,phospho-JNK; [3],≤ 261%
same,phospho-JNK expression,phospho-JNK; [4],≤ 204%
same,phospho-JNK expression,phospho-JNK; [5],≤ 120%
same,scopolamine-induced decrease of step-through latency time (test trial),"mice; sulfuretin 1 mg/kg, p.o., one hour before training trial, scopolamine 0.5 mg/kg, i.p. (p<0.05)",blocked this decrease
same,latencies during the training trials,"mice; sulfuretin p.o., training trial",did not change
same,LDH activity (LDH release),SH-SY5Y cells [2],significantly decreased
